{"source": "patent US10556860B2", "about": "“hTERT modulators and methods of use” (Arizona Board of Regents on Behalf of the University of …, priority 2015, dated 2020)", "key": {"[1]": {"tested_on": "i-motif formed from the full-length C-rich strand of hTERT promoter", "experiment": "CD melting (Tm), i-motif", "format": "binding, human", "settings": "pH 6.6", "experimental": "Circular dichroism. Oligomers of WT, G124A, G124/125A, G138/139A and G146A were synthesized and HPSF-purified by MGW Operon, Inc. For CD analysis, oligomers (5 μM) in a buffer containing 10 mM Tris-HCl (pH 7.5) and 140 mM KCl were annealed. For the CD analysis of the complex of oligomers and compounds, oligomers (5 μM) in a buffer containing 10 mM Tris-HCl (pH 7.5) and 5 mM KCl for GTC365 or 1 mM KCl for BRACO-19 were annealed. Oligomers and GTC365 or BRACO-19 were incubated overnight at room temperature. For the full-length of C-rich strand, the oligomer in a buffer of 10 mM Na cacodylate (pH 6.6) was annealed and then incubated with GTC365 overnight. CD analysis was conducted on a Jasco 810 spectropolarimeter (Jasco, Easton, Md.) using a quartz cell with 1 mm of path length, 1 nm of band width, and 1 s of response time for spectra at 20° C. Melting curves for the determination of Tm were obtained by recording ellipticity at 262 nm with increasing temperatures from 25° C. to 95° C. at a rate of 1.6° C./min. Tm of the C-rich strand with GTC365 was obtained from the CD signal at 286 nm within 10-60° C.\nIn contrast, BRACO-19 increased the Tm of telomeric G-quadruplex by ˜60% compared to that of the hTERT G-quadruplex at 0.5 and 1 equiv. A summary of the comparative Tms of GTC365 and BRACO-19 in hTERT and telomeric DNA is shown below."}, "[2]": {"tested_on": "UACC-903, a G124A mutant melanoma cell line", "experiment": "Viability of G124A mutant melanoma cells", "format": "cell-based, human", "settings": "72 h", "experimental": "FIGS. 13A-13C are a set of graphs showingselective reduction in viability (A) and hTERT expression (B) in melanoma cells carrying hTERT core promotor mutations. NHM-002 (normal human melanocytes) and a G124A mutant cell line were treated with vehicle, 1.25, 2.5, and 5 μM GTC365 for 72 h. Viability was reduced in hTERT mutant melanoma cells by 50% (left). […] (C) Differential response to GTC365 in WT and promoter mutant cell lines.\nNext, to assess the selectivity of GTC365 for hTERT-dependent cancer cells relative to normal precursorcells, we compared the effects of a range of […] on viability at 72 h in normal humanmelanocytes (NHM-002) relative to those of UACC-903, aG124A mutant (FIG. 13A). […] To confirm that the reduction in cell viability was aresult of hTERT downregulation, we performed reverse transcription and qPCR to measure the mRNA level of hTERT expression in cells treated with DMSO or 5 μMGTC365. hTERT expression was reduced by 41% in themelanoma cell line after 72 h but was undetectable in normalmelanocytes, even in the absence of GTC365 (FIG. 13B). Finally, tobroadly assess the selectivity of GTC365 for hTERT promotermutant versus WT cells, we conducted a 6-point 72 h MTSproliferation assay to determine EC50s in 14 additional melanoma cell lines with characterized TERT promoter status([…]) (FIG. 13C). […]"}}, "data": [{"compound": "N=C(N)NCCCS(=O)(=O)Nc1ccc(Nc2c3ccccc3nc3cc([N+](=O)[O-])ccc23)cc1", "note": "[GTC365]", "values": [{"measurement": "change in Tm of the i-motif", "setting": "[1]", "result": "little change in Tm"}, {"measurement": "viability", "setting": "[2]; 5 μM", "result": "below 50%"}, {"measurement": "reduction of viability", "setting": "[2]; hTERT mutant melanoma cells, up to 5 μM", "result": 50, "unit": "%"}]}]}
